According to patent US4308274A, “N-Alkylsulfonyl-, N-arylsulfonyl-, and N-aminosulfonylaminosulfinylcarbamate esters” (priority 1979, dated 1981):
Like-named read-outs stand apart in the source and are kept apart here.

How the values were obtained:
[1] = tested on: house flies, Musca domestica; assay: insecticidal activity against house flies (topical, 24 hours mortality); assay type: in vivo; settings: read-out: House flies LD50
Method: Representative carbamate esters of the invention were tested for insecticidal activity against house flies, Musca domestica. Stock 1% concentrated solutions for each of the test compounds were made in acetone, and such solutions diluted with acetone to a concentration of 0.001-0.1%. House flies were treated topically on the notum by 1 μl of each of the diluted acetone solutions and percent mortality was counted 24 hours after application. The insects were held at a constant temperature of 60° F. Results are given in μg/g.

[2] = mammalian toxicity against Swiss white mice (oral); settings: mouse, in vivo, corn oil carrier
Method: Mammalian toxicity was determined against Swiss white mice.

[3] = topical on the notum, 1 μl acetone solution, percent mortality 24 hours after application, 60° F

## CCN([S+]([O-])N(C)C(=O)Oc1cccc(C(C)C)c1)S(C)(=O)=O (stereo not drawn) [VII, 3-isopropylphenyl N-(N'-methanesulfonyl-N'-ethylaminosulfinyl)-N-methylcarbamate]
[1]; topical, 24 h
  LD50: 90 mg/kg
[2]
  LD50: 200 mg/kg

## CN(C(=O)Oc1cccc2ccccc12)[S+]([O-])N(C)S(=O)(=O)c1ccccc1 (stereo not drawn) [IV, 1-naphthyl N-(N'-benzenesulfonyl-N'-methylaminosulfinyl)-N-methylcarbamate]
[1]; topical, 24 h
  LD50: 450 mg/kg
[2]
  LD50: > 500 mg/kg

## CN(C(=O)Oc1cccc2c1OC(C)(C)C2)[S+]([O-])N(C)S(=O)(=O)N1CCOCC1 (stereo not drawn) [Example X, 2,3-Dihydro-2,2-dimethylbenzofuranyl-7N-[N'-(N"-morpholinosulfonyl)-N'-methylaminosulfinyl]N-methylcarbamate]
[1]; topical, 24 h
  LD50: 13 mg/kg

## CCN([S+]([O-])N(C)C(=O)Oc1cccc2c1OC(C)(C)C2)S(C)(=O)=O (stereo not drawn) [VI, 2,3-dihydro-2,2-dimethylbenzofuranyl-7 N-(N'-methanesulfonyl-N'-ethylaminosulfinyl)-N-methylcarbamate]
[1]; topical, 24 h
  LD50: 12.5 mg/kg

## CN(C(=O)Oc1cccc2c1OC(C)(C)C2)[S+]([O-])N(C)S(=O)(=O)c1ccccc1 (stereo not drawn) [Example I, 2,3-dihydro-2,2-dimethylbenzofuranyl-7N-(N'-benzenesulfonyl-N'-methylaminosulfinyl)-N-methylcarbamate]
[1]; topical, 24 h
  LD50: 9.5 mg/kg
[2]
  LD50: 35 mg/kg

## CCCCN(CCCC)S(=O)(=O)N(C)[S+]([O-])N(C)C(=O)ON=C(C)SC (stereo not drawn) [Example XII, S-methyl N-[N'-(N"-dibutylaminosulfonyl-N"-methylaminosulfinyl)-N'-methylcarbamoyloxy]thioacetimidate]
[1]; [3]
  LD50: 9 mg/kg
[2]
  LD50: 100 mg/kg

## CCCCN(CCCC)S(=O)(=O)N(C)[S+]([O-])N(C)C(=O)Oc1cccc2c1OC(C)(C)C2 (stereo not drawn) [Example IX, 2,3-dihydro-2,2-dimethylbenzofuranyl-7 N-(N'-dibutylaminosulfonyl-N'-methylaminosulfinyl)-N-methylcarbamate]
[1]; topical, 24 h
  LD50: 12 mg/kg
[2]
  LD50: 25 mg/kg

## CCN([S+]([O-])N(C)C(=O)ON=C(C)SC)S(C)(=O)=O (stereo not drawn) [VIII, S-methyl N-[N'-(N"-methanesulfonyl-N"-ethylaminosulfinyl)-N'-methylcarbamoyloxy]thioacetimidate]
[1]; [3]
  LD50: 25 mg/kg
[2]
  LD50: 250 mg/kg

## CCN([S+]([O-])N(C)C(=O)Oc1cccc2c1OC(C)(C)C2)S(=O)(=O)N1CCOCC1 (stereo not drawn) [Example XI, 2,3-Dihydro-2,2-dimethylbenzofuranyl-7-N-(N'-morpholinosulfonyl-N'-ethylaminosulfinyl)-N-methylcarbamate]
[1]; topical, 24 h
  LD50: 10 mg/kg

## CC(C)c1cccc(OC(=O)N(C)[S+]([O-])N(C)S(=O)(=O)c2ccccc2)c1 (stereo not drawn) [III, 3-isopropylphenyl N-(N'-benzenesulfonyl-N'-methylaminosulfinyl)-N-methylcarbamate]
[1]; topical, 24 h
  LD50: 95 mg/kg
[2]
  LD50: 150 mg/kg

## CC(C)Oc1ccccc1OC(=O)N(C)[S+]([O-])N(C)S(=O)(=O)c1ccccc1 (stereo not drawn) [II, 2-isopropoxyphenyl N-(N'-benzenesulfonyl-N'-methylaminosulfinyl)-N-methylcarbamate]
[1]; topical, 24 h
  LD50: 55 mg/kg
[2]
  LD50: 250 mg/kg

## CSC(C)=NOC(=O)N(C)[S+]([O-])N(C)S(=O)(=O)c1ccccc1 (stereo not drawn) [V, S-methyl N-[N'-(N"-benzenesulfonyl-N"-methylaminosulfinyl)-N'-methylcarbamoyloxy]thioacetimidate]
[1]; [3]
  LD50: 17.5 mg/kg
[2]
  LD50: 86 mg/kg
